Values belong to the compound of their own block, whether it stands above or below them.
What was measured:
[1] = system: Rattus norvegicus; experiment: Antiinflammatory activity in rat assessed as reversal of carrageenan-induced hyperalgesia at 3 mg/kg, ip; format: functional; conditions: route intraperitoneal
[2] = Half life in Sprague-Dawley rat at 2 mg/kg, iv; format: ADME, organism-based; design: dose 2 mg/kg, route intravenous; conditions: in vivo
[3] = molecular target: T1, B1 bradykinin receptor (Oryctolagus cuniculus, UniProt P48748); experiment: Inhibition of rabbit bradykinin B1 receptor
T1 sequence (P48748 whole entry): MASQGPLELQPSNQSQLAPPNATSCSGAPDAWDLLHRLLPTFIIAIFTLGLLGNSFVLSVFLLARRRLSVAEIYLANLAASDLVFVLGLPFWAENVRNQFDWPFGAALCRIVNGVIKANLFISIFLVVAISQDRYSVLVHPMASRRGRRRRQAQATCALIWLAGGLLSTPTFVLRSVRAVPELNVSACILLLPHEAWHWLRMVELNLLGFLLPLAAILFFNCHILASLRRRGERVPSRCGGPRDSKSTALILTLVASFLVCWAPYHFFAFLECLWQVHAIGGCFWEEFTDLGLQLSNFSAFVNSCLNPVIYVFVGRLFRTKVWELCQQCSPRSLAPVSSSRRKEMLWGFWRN

[4] = molecular target: T2, B1 bradykinin receptor (Rattus norvegicus, UniProt P97583); experiment: Inhibition of rat bradykinin B1 receptor
T2 sequence (P97583 whole entry): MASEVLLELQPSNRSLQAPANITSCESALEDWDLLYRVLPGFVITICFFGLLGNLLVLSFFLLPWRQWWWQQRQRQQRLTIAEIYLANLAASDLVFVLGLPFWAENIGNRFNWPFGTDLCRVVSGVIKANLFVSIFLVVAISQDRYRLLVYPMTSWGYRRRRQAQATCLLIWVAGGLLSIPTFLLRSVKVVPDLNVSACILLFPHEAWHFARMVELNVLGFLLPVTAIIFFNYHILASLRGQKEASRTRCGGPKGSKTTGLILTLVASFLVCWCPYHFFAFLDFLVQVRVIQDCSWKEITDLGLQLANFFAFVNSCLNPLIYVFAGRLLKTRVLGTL

[5] = molecular target: T3, B1 bradykinin receptor (Canis lupus familiaris, UniProt Q9BDQ5); experiment: Antagonist activity at dog bradykinin B1 receptor; format: functional
T3 sequence (Q9BDQ5 whole entry): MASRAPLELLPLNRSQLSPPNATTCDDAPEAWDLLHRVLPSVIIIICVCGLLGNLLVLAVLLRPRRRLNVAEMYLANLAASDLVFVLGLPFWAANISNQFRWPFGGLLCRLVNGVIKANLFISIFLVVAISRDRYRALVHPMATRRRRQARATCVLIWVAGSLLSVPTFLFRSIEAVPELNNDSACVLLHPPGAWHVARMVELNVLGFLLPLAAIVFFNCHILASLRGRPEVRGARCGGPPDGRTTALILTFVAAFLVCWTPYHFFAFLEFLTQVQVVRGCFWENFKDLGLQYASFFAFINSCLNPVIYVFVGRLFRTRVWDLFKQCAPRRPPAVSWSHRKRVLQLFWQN

[6] = Oral bioavailability in Sprague-Dawley rat at 7 mg/kg; format: ADME, organism-based; conditions: in vivo
[7] = molecular target: T4, B1 bradykinin receptor (Macaca mulatta, UniProt Q8HZP2); experiment: Binding affinity to monkey bradykinin B1 receptor
T4 sequence (Q8HZP2 whole entry): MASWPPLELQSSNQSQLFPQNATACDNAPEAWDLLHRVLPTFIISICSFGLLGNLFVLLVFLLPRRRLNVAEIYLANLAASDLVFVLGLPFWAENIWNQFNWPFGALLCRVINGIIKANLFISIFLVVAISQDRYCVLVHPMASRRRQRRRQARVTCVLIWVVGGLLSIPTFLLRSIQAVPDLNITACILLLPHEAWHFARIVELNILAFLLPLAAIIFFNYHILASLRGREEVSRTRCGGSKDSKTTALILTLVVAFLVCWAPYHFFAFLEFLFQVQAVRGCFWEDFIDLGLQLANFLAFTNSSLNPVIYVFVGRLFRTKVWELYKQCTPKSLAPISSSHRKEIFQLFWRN

[8] = Half life in Sprague-Dawley rat at 0.7 mg/kg, iv; format: ADME, organism-based; design: dose 0.7 mg/kg, route intravenous; conditions: in vivo
[9] = molecular target: T5, B1 bradykinin receptor (Homo sapiens, UniProt P46663); experiment: Antagonist activity at human bradykinin B1 receptor in human MR5 cells assessed as [3H]inositol phosphate accumulation; format: functional, cell-based
T5 sequence (P46663 whole entry): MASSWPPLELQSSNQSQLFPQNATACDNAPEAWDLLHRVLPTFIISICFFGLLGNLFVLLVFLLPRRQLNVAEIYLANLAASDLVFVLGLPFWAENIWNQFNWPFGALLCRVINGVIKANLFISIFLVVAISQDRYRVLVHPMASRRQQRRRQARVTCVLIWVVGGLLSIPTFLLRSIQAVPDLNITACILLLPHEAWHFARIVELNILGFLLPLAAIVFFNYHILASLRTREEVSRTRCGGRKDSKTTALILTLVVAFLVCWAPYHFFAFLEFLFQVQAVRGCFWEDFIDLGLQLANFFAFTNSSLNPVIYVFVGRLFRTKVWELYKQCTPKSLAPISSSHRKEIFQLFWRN

SMILES: CCCN1C(=O)[C@H](NC(=O)Nc2ccc(N3CCN(c4ccncc4)CC3)cc2)N=C(CCc2ccccc2)c2ccccc21
- Activity [1]: 89%
- half-life [2]: 2.7 h

SMILES: O=C(C[C@@H]1C(=O)Nc2ccccc2N1S(=O)(=O)c1ccc(Cl)c(Cl)c1)NCCc1ccc(C2=NCCN2)cc1
- IC50 [3]: 0.26 nM
- IC50 [4]: 163 nM
- IC50 [5]: 16.3 nM

SMILES: CN1CCN(C(=O)C2CCN(S(=O)(=O)c3ccc(NCC(c4ccccc4)c4ccccc4)c(C(=O)N4CCOCC4)c3)CC2)CC1
- bioavailability [6]: 42%
- Ki [7]: 7.7 nM
- half-life [8]: 2.7 h

SMILES: O=C(Nc1[nH]nc(C(=O)NCCC2CCN(c3ccncc3)CC2)c1Br)c1ccccc1Cl
- IC50 [9]: 3.5 nM

Next, values leading:

- half-life [2]: 9.7 h
SMILES: O=C(Nc1ccc(S(=O)(=O)Nc2ccccc2C(=O)c2ccccc2)cc1)OCC1CCCO1 (configuration not stated)

- half-life [2]: 0.3 h
SMILES: CC(=O)Nc1ccc(S(=O)(=O)Nc2ccccc2C(=O)c2ccccc2)cc1

- half-life [2]: 14 h
SMILES: O=C(NCCCN1CCCCC1)Nc1ccc(S(=O)(=O)Nc2ccccc2C(=O)c2ccccc2)cc1

From ChEMBL document CHEMBL1250452, “Bradykinin B1 receptor antagonists as potential therapeutic agents for pain” (J Med Chem, 2010)
